According to US8729076B2, “Secondary 8-hydroxyquinoline-7-carboxamide derivatives” (Polichem SA, priority 2009, dated 2014):
In brackets after ≈: the same amount, converted by molar mass. Like-named read-outs stand apart in the source and are kept apart here.

Columns and labels:
Assay type in all cases: cell-based
[1] = system: Scopulariopsis Brevicaulis (ATCC 36840); assay: Broth micro-dilution antifungal susceptibility test (MIC); settings: ATCC36840, 120 h, 35° C.
Method: (§1) Trichophyton Rubrum (ATCC 28188, PBI International); Trichophyton Mentagrophytes (ATCC 9533, PBI International); Aspergillus Niger (ATCC 16404, PBI International); Scopulariopsis Brevicaulis (ATCC 36840, DSMZ); Candida Albicans (ATCC 90028, PBI International); Candida Glabrata (ATCC 90030, DSMZ).
(§2) Compounds' minimal inhibition concentration (MIC) was determined through broth micro-dilution susceptibility test using a method developed in agreement with the National Committee for Clinical Laboratory Standards (NCCLS) (National Committee for Clinical Laboratory Standards. Reference Method for Broth Dilution Antifungal Susceptibility Testing of Yeasts; Approved standard-Second Edition M27-A2. 2002; Vol. 22, No. 15) (National Committee for Clinical Laboratory Standards. Reference Method for Broth Dilution Antifungal Susceptibility Testing of Filamentous Fungi; Approved standard M38-A. 2002; Vol. 22, No. 16).
(§3) Assays were carried out in RPMI 1640 with L-glutamine medium buffered to pH 7 with 0.165M 3-(N-morpholino)propanesulfonic acid (MOPS) and 10M NaOH and supplemented with 18 g glucose/liter. The tests were performed using 96 well sterile plates (inoculum size of 1×10^5 CFU/mL). Compounds stock solutions were prepared at 12.8 mg/mL in 100% DMSO. A series of twofold dilutions were prepared in plate using RPMI 1640. Final concentrations ranged from 0.125 to 128 μg/mL at 1% DMSO.

[2] = system: Candida Glabrata (ATCC 90030); assay: as above; settings: Nakaseomyces glabratus, ATCC90030, 48 h, 35° C.
Method: as §1, §2, §3

[3] = system: Trichophyton Rubrum (ATCC 28188); assay: as above; settings: ATCC28188, 120 h, 35° C.
Method: as §1, §2, §3

[4] = system: Aspergillus Niger (ATCC 16404); assay: as above; settings: ATCC16404, 120 h, 35° C.
Method: as §1, §2, §3

[5] = system: Candida Albicans (ATCC 90028); assay: as above; settings: 35° C.
Method: as §1, §2, §3

[6] = system: Trichophyton Mentagrophytes (ATCC 9533); assay: as above; settings: ATCC9533, 120 h, 35° C.
Method: as §1, §2, §3

[7] = system: 6 strains tested, including yeasts, dermatophytes and molds; assay: Antifungal spectrum over the 6 strains tested (MIC test); settings: 6 strains: yeasts
Method: as §1, §2, §3

[8] = system: Candida Glabrata (ATCC 90030); assay: Assessment of the mechanism of action: antifungal activity with or without 100 μM Fe3+; settings: 100 μM FeCl3 in the test medium; OD at 540 nm
Method: To verify if the compounds mechanism of action is the chelation of iron ions, the MIC determination with Candida glabrata (ATCC 90030) strain was performed by the addition of excessive iron ions (100 μM FeCl3) in the test medium. The viability of cells exposed to drugs, with or without the metal ion Fe^3+, was evaluated by the OD measure at 540 nm.
Compounds described in Example 2, E8 and NiK-29298 were evaluated in presence and in absence of 100 μM (100 micromoles) Fe^3+.
In all figures, the lines and dots represent the percent inhibition of the fungal growth (in ordinate) by adding different concentrations of antifungal agents (in abscissa). Blue lines and dots are the experiments performed without iron supplementation, while red lines and dots represent the results of the experiments performed in presence of 100 μM Fe^3+. […] Conversely, Fe^3+ has no effect on amphotericin, an antifungal agent known in the art to have a mechanism of action different from that of ciclopirox.

[9] = geometric means of two single experiments, five days, Table 3
[10] = geometric means of two single experiments, Table 3
[11] = geometric means of two single experiments, five days, Table 3, read-out: MIC Trycophyton Rubrum ATCC 28188
[12] = ATCC90028, geometric means of two single experiments, 48 h, Table 3
[13] = geometric means of two single experiments, five days, Table 3, read-out: MIC Tricophyton Mentagrophytes ATCC 9533
[14] = comparison compounds, Table 5, five days
[15] = comparison compounds, Table 5, five days, read-out: MIC Trycophyton Rubrum ATCC 28188
[16] = ATCC90028, comparison compounds, Table 5, 48 h
[17] = comparison compounds, Table 5, five days, read-out: MIC Tricophyton Mentagrophytes ATCC 9533

| Structure (SMILES) | MIC [1, 9] | MIC [2, 10] | MIC [3, 11] | MIC [4, 9] | MIC [5, 12] | MIC [6, 13] | MIC [1, 14] | MIC ([2]; comparison compounds, Table 5) | MIC [3, 15] | MIC [4, 14] | MIC [5, 16] | MIC [6, 17] | Spectrum of antifungal activity on the strains tested [7] | Effect of Fe3+ on antifungal activity [8] |
| --- | --- | --- | --- | --- | --- | --- | --- | --- | --- | --- | --- | --- | --- | --- |
| O=C(NCc1ccccn1)c1ccc2cccnc2c1O [Example 1, 8-Hydroxy-N-(pyridin-2-ylmethyl)quinoline-7-carboxamide] | 1 mg/L (≈ 3.58 µM) | 4 mg/L (≈ 14.3 µM) | 2 mg/L (≈ 7.16 µM) | 0.5 mg/L (≈ 1.79 µM) | 4 mg/L (≈ 14.3 µM) | 2 mg/L (≈ 7.16 µM) | – | – | – | – | – | – | – | – |
| O=C(NCc1ccc(Br)cc1)c1ccc2cccnc2c1O [Example 2, 8-Hydroxy-N-(4-bromobenzyl)quinoline-7-carboxamide] | 1.41 mg/L (≈ 3.95 µM) | 1.41 mg/L (≈ 3.95 µM) | 1.41 mg/L (≈ 3.95 µM) | 0.71 mg/L (≈ 1.99 µM) | 1.41 mg/L (≈ 3.95 µM) | 1 mg/L (≈ 2.8 µM) | – | – | – | – | – | – | – | – |
| CN(C)c1ccc(CNC(=O)c2ccc3cccnc3c2O)cc1 [Example 4, 8-Hydroxy-N-(4-(dimethylamino)benzyl)quinoline-7-carboxamide] | 1 mg/L (≈ 3.11 µM) | 1.41 mg/L (≈ 4.39 µM) | 1 mg/L (≈ 3.11 µM) | 0.5 mg/L (≈ 1.56 µM) | 2.83 mg/L (≈ 8.81 µM) | 0.71 mg/L (≈ 2.21 µM) | – | – | – | – | – | – | – | – |
| C[C@@H]1[C@H](O)[C@@H](C)/C=C/C=C/C=C/C=C/C=C/C=C/C=C/[C@H](O[C@@H]2O[C@H](C)[C@@H](O)[C@H](N)[C@@H]2O)C[C@@H]2O[C@](O)(C[C@@H](O)C[C@@H](O)[C@H](O)CC[C@@H](O)C[C@@H](O)CC(=O)O[C@H]1C)C[C@H](O)[C@H]2C(=O)O [amphotericin] | – | – | – | – | – | – | – | – | – | – | – | – | – | no effect |
| Cc1cc(C2CCCCC2)n(O)c(=O)c1 [ciclopirox] | – | – | – | – | – | – | – | – | – | – | – | – | – | completely inhibited |

The next lines start with results.

| MIC [1, 9] | MIC [2, 10] | MIC [3, 11] | MIC [4, 9] | MIC [5, 12] | MIC [6, 13] | MIC [1, 14] | MIC ([2]; comparison compounds, Table 5) | MIC [3, 15] | MIC [4, 14] | MIC [5, 16] | MIC [6, 17] | Structure (SMILES) | Spectrum of antifungal activity on the strains tested [7] | Effect of Fe3+ on antifungal activity [8] |
| --- | --- | --- | --- | --- | --- | --- | --- | --- | --- | --- | --- | --- | --- | --- |
| 1.26 mg/L (≈ 3.8 µM) | 2.83 mg/L (≈ 8.54 µM) | 2.52 mg/L (≈ 7.61 µM) | 1 mg/L (≈ 3.02 µM) | 2 mg/L (≈ 6.04 µM) | 2 mg/L (≈ 6.04 µM) | – | – | – | – | – | – | O=C(Nc1ccc(-n2cncn2)cc1)c1ccc2cccnc2c1O [Example 7, 8-Hydroxy-N-(4-(1H-1,2,4-triazol-1-yl)phenyl)quinoline-7-carboxamide] | – | – |
| 1 mg/L (≈ 3.1 µM) | 2 mg/L (≈ 6.21 µM) | 0.25 mg/L (≈ 0.776 µM) | 1 mg/L (≈ 3.1 µM) | 2 mg/L (≈ 6.21 µM) | 0.5 mg/L (≈ 1.55 µM) | – | – | – | – | – | – | O=C(Nc1ccc2c(c1)OCCO2)c1ccc2cccnc2c1O [Example 9, 8-Hydroxy-N-(2,3-dihydrobenzo[b][1,4]dioxin-6-yl)quinoline-7-carboxamide] | – | – |
| 4 mg/L (≈ 11 µM) | 2 mg/L (≈ 5.5 µM) | 1 mg/L (≈ 2.75 µM) | 0.5 mg/L (≈ 1.38 µM) | 4 mg/L (≈ 11 µM) | 0.5 mg/L (≈ 1.38 µM) | – | – | – | – | – | – | O=C(NCc1ccc(N2CCOCC2)cc1)c1ccc2cccnc2c1O [Example 10, 8-Hydroxy-N-(4-morpholinobenzyl)quinoline-7-carboxamide] | – | – |
| 2.83 mg/L (≈ 9.99 µM) | 2 mg/L (≈ 7.06 µM) | 1 mg/L (≈ 3.53 µM) | 1 mg/L (≈ 3.53 µM) | 2 mg/L (≈ 7.06 µM) | 4 mg/L (≈ 14.1 µM) | – | – | – | – | – | – | Cc1cc(CNC(=O)c2ccc3cccnc3c2O)no1 [Example 11, 8-Hydroxy-N-((5-methylisoxazol-3-yl)methyl)quinoline-7-carboxamide] | – | – |
| 1 mg/L (≈ 3.34 µM) | 2 mg/L (≈ 6.68 µM) | 1.41 mg/L (≈ 4.71 µM) | 1 mg/L (≈ 3.34 µM) | 2 mg/L (≈ 6.68 µM) | 2.83 mg/L (≈ 9.45 µM) | – | – | – | – | – | – | Cc1csc(CNC(=O)c2ccc3cccnc3c2O)n1 [Example 12, 8-Hydroxy-N-((4-methylthiazol-2-yl)methyl)quinoline-7-carboxamide] | – | – |
| 1 mg/L (≈ 2.98 µM) | 2.83 mg/L (≈ 8.44 µM) | 2 mg/L (≈ 5.96 µM) | 0.5 mg/L (≈ 1.49 µM) | 2 mg/L (≈ 5.96 µM) | 1 mg/L (≈ 2.98 µM) | – | – | – | – | – | – | O=C(NCc1nc2ccccc2s1)c1ccc2cccnc2c1O [Example 14, 8-Hydroxy-N-(benzo[d]thiazol-2-ylmethyl)quinoline-7-carboxamide] | – | – |
| – | – | – | – | – | – | > 128 mg/L | 1 mg/L (≈ 2.71 µM) | > 128 mg/L | 2 to 128 mg/L (≈ 5.43 to 347 µM) | 1.41 mg/L (≈ 3.83 µM) | 75 mg/L (≈ 204 µM) | O=C(NCc1ccc(OCc2ccccc2)cc1)c1ccc2ncccc2c1 [Example E8, reference compound] | active only on yeasts | not inhibited |
| – | – | – | – | – | – | > 128 mg/L | 5.65 mg/L (≈ 21.5 µM) | > 128 mg/L | 64 to 128 mg/L (≈ 244 to 488 µM) | 2 mg/L (≈ 7.62 µM) | 128 mg/L (≈ 488 µM) | O=C(NCc1ccccc1)c1ccc2ncccc2c1 [NiK-29298, reference compound] | active only on yeasts | not inhibited |
